{"source": "paper PMC10005750", "about": "(Molecules, 2023)", "key": {"[1]": {"assay": "Plasma sample stability at low and high QC under storage and handling conditions", "procedure": "Standard stock solutions of DPZ, TAD, and LPZ (IS) were prepared in methanol at a concentration of 100 µg/mL and stored at −20 °C. Working solutions were prepared by diluting the stock solutions with 50% methanol. The concentration of DPZ and TAD ranged from 1 to 200 ng/mL. […] The IS working solution was prepared by diluting the stock solution with 50% methanol to a concentration of 20 ng/mL. All working stock solutions were prepared and stored at −20 °C until use. Calibration standards and QC samples of DPZ and TAD in rat plasma were diluted with the corresponding working solutions and blank rat plasma. Drug-free plasma, that is, control (blank) plasma, stored in a deep freezer, was completely thawed at room temperature before use. Ten percent spiking with working DPZ and TAD stock solutions was performed in blank plasma. The spiked QC samples were stored at −70 °C for stability studies.\nStability analyses of the stock solutions were performed at room temperature for 3 h and under refrigerated conditions (4 °C) for 14 days. The stability of the plasma analytes was tested for low and high QC under pre-specified conditions: room temperature for 5 h, refrigeration (4 °C) for 14 days, autosampler (10 °C) for 20 h, four cycles of freezing-thawing, and finally frozen conditions (−70 °C) for 28 days for long-term stability."}, "[2]": {"assay": "Pharmacokinetic interaction study after oral administration of DPZ and TAD, alone or in combination, in rats", "conditions": "rat; for CL/F (apparent systemic clearance): tadalafil 0.3 mg/kg oral, n = 3, mean ± SD", "procedure": "The rat plasma was stored at −70 °C. The plasma samples were thawed at room temperature and then centrifuged at 1800× g (4 °C) for 8 min before pipetting. Using a micropipette, 30 µL of the plasma sample was transferred into a polypropylene microtube, and 10 µL of IS working solution was added to each sample. Further, 0.2 mL of acetonitrile was then added and vortexed for 1 min. […] The supernatant was transferred to an analytical vessel, and 2 µL of the sample was injected into the LC-MS/MS system.\nRats were divided into three groups (n = 3): group 1, DPZ (3 mg/kg); group 2, TAD (0.3 mg/kg); and group 3, DPZ (3 mg/kg) combined with TAD (0.3 mg/kg). Animals were fasted overnight and allowed free access to water.\nThe peak plasma concentration, Cmax, and Tmax (the time to reach Cmax) for DPZ and TAD were calculated using individual plasma concentration–time profiles. […] The terminal half-life (T1/2) was calculated as ln 2/λz (λz is the elimination rate constant estimated by using the least-squares linear regression method of the terminal log-linear portion of the plasma concentration–time curve). The apparent clearance (CL/F) was calculated as CL/F = dose/AUC0-∞. The Mann–Whitney U test was used to determine the differences in the mean plasma concentration and PK profiles of DPZ and TAD between the single and combined administration groups. Statistical analysis was performed using SPSS Statistics (version 26.0; IBM SPSS Statistics for Windows, Armonk, NY, USA), and a p-value < 0.05 was considered statistically significant."}, "[3]": {"conditions": "male, Sprague-Dawley, plasma, po"}, "[4]": {"conditions": "male, Sprague-Dawley, plasma, po, 0.3 mg/kg"}}}
{"smiles": "CN1CC(=O)N2[C@H](c3ccc4c(c3)OCO4)c3[nH]c4ccccc4c3C[C@@H]2C1=O", "note": "[Tadalafil, tadalafil]", "values": [{"measurement": "Plasma sample stability (Mean ± SD, %)", "setting": "[1]; extracted rat plasma sample, autosampler (10 °C, 20 h), nominal 2 ng/mL", "result": "99.63 ± 6.03", "unit": "%"}, {"measurement": "Plasma sample stability (Mean ± SD, %)", "setting": "[1]; extracted rat plasma sample, autosampler (10 °C, 20 h), nominal 160 ng/mL", "result": "102.18 ± 3.98", "unit": "%"}, {"measurement": "Plasma sample stability (Mean ± SD, %)", "setting": "[1]; rat plasma, freeze-thaw (4 cycles), nominal 2 ng/mL", "result": "95.15 ± 2.69", "unit": "%"}, {"measurement": "Plasma sample stability (Mean ± SD, %)", "setting": "[1]; rat plasma, freeze-thaw (4 cycles), nominal 160 ng/mL", "result": "103.60 ± 1.55", "unit": "%"}, {"measurement": "Plasma sample stability (Mean ± SD, %)", "setting": "[1]; rat plasma, refrigeration (4 °C, 14 days), nominal 2 ng/mL", "result": "93.52 ± 3.03", "unit": "%"}, {"measurement": "Plasma sample stability (Mean ± SD, %)", "setting": "[1]; rat plasma, refrigeration (4 °C, 14 days), nominal 160 ng/mL", "result": "107.44 ± 5.73", "unit": "%"}, {"measurement": "Plasma sample stability (Mean ± SD, %)", "setting": "[1]; rat plasma, room temperature (5 h), nominal 2 ng/mL", "result": "95.75 ± 4.54", "unit": "%"}, {"measurement": "Plasma sample stability (Mean ± SD, %)", "setting": "[1]; rat plasma, room temperature (5 h), nominal 160 ng/mL", "result": "95.18 ± 0.41", "unit": "%"}, {"measurement": "Plasma sample stability (Mean ± SD, %)", "setting": "[1]; rat plasma, −70 °C (28 days), nominal 2 ng/mL", "result": "99.17 ± 3.88", "unit": "%"}, {"measurement": "Plasma sample stability (Mean ± SD, %)", "setting": "[1]; rat plasma, −70 °C (28 days), nominal 160 ng/mL", "result": "104.42 ± 4.78", "unit": "%"}, {"measurement": "stability in rat plasma under all examined conditions", "setting": "[1]; rat, plasma", "result": "stable"}, {"measurement": "Tmax", "setting": "[2]; [3]", "result": 0.5, "unit": "h"}, {"measurement": "half-life", "setting": "[2]; [3]", "result": "1.96 ± 0.212", "unit": "h"}, {"measurement": "AUC(0-inf)", "setting": "[2]; [4]", "result": "50.4 ± 23.6", "unit": "ng·h/mL"}, {"measurement": "AUC(0-t)", "setting": "[2]; [4]", "result": "47 ± 24.4", "unit": "ng·h/mL"}, {"measurement": "Cmax", "setting": "[2]; [4]", "result": "17.8 ± 6", "unit": "ng/mL"}, {"measurement": "MRT last", "setting": "[2]; [4]", "result": "2.53 ± 0.214", "unit": "h"}, {"measurement": "Tmax", "setting": "[2]; [4]", "result": 0.5, "unit": "h"}, {"measurement": "half-life", "setting": "[2]; [4]", "result": "1.52 ± 0.12", "unit": "h"}, {"measurement": "CL/F (apparent systemic clearance)", "setting": "[2]; alone", "result": "7.355 ± 4.516", "unit": "L/h"}, {"measurement": "CL/F (apparent systemic clearance)", "setting": "[2]; with DPZ 3 mg/kg", "result": "11.819 ± 9.852", "unit": "L/h"}]}
